Source: patent US20250170266A1 (ZYMEWORKS BC INC., priority 2022, published 2025)
Read-outs that look alike come from different tables or passages of the source.

What was measured:
Type in all cases: cell-based
hTLR7 = biological target: T1, hTLR7 (Homo sapiens, UniProt Q9NYK1); assay: Reporter Gene Assay (RGA), HEK-Blue hTLR7 reporter cells, SEAP readout; conditions: overnight incubation, SEAP absorbance 620 nm
T1 construct: host or cells: HEK-Blue hTLR7 reporter cells (HEK293-derived, own knowledge)
T1 sequence (Q9NYK1 27-1049): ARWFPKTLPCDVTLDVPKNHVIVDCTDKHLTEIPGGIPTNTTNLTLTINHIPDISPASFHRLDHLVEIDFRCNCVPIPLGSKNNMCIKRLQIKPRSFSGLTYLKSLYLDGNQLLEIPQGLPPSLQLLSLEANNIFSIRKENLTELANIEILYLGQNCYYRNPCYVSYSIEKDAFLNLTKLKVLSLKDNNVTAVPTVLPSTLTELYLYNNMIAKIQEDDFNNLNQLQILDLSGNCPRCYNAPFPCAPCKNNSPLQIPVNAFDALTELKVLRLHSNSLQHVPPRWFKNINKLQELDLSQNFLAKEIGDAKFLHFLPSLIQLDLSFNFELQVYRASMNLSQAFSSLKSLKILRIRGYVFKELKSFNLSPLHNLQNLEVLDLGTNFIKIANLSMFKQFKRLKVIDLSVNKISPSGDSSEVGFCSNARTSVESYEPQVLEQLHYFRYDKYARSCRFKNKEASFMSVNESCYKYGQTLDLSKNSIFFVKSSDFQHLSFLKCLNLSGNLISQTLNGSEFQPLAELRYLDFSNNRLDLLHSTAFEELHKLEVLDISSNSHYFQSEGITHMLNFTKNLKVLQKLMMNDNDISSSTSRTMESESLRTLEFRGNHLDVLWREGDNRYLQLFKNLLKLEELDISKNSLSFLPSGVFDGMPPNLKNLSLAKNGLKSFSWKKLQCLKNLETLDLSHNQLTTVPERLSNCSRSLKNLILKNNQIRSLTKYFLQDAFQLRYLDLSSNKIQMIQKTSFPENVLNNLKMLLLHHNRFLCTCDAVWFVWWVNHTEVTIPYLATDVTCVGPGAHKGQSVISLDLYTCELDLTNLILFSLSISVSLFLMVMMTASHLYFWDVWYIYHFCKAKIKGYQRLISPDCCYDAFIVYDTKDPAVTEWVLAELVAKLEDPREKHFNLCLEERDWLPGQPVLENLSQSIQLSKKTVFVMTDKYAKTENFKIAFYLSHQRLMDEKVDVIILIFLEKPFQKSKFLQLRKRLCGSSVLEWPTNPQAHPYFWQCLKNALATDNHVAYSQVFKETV
Procedure: (§1) 1.5×10^4 HEK-Blue™ hTLR7 (Invivogen, San Diego, CA) or HEK-Blue™ mTLR7 (Invivogen, San Diego, CA) reporter cells were treated with a titration series of test compound (4-fold titration from […], 11 points). Compounds were initially diluted to 1 mM in DMSO and subsequently serial-diluted in assay media (HEK-Blue™ Detection; Invivogen, San Diego, CA). Cells with test compound were incubated overnight at 37° C.+5% CO2, and the amount of secreted embryonic alkaline phosphatase (SEAP) was determined by measuring absorbance (620 nm) using a Synergy™ H1 microplate reader.
(§2) Each assay included a positive control compound (referred to herein as “benchmark,” see, e.g., TABLE 3 below, and taken from International Patent Publication No. WO2017/072662, structure shown below) and a negative control (growth medium). […] The structure of the benchmark compound from International Patent Publication No. WO 2017/072662 is as follows: […]

mTLR7 = biological target: T2, mTLR7 (Mus musculus, UniProt P58681); assay: Reporter Gene Assay (RGA), HEK-Blue mTLR7 reporter cells, SEAP readout; conditions: overnight incubation, SEAP absorbance 620 nm
T2 construct: host or cells: HEK-Blue mTLR7 reporter cells (HEK293-derived, own knowledge)
T2 sequence (P58681 27-1050): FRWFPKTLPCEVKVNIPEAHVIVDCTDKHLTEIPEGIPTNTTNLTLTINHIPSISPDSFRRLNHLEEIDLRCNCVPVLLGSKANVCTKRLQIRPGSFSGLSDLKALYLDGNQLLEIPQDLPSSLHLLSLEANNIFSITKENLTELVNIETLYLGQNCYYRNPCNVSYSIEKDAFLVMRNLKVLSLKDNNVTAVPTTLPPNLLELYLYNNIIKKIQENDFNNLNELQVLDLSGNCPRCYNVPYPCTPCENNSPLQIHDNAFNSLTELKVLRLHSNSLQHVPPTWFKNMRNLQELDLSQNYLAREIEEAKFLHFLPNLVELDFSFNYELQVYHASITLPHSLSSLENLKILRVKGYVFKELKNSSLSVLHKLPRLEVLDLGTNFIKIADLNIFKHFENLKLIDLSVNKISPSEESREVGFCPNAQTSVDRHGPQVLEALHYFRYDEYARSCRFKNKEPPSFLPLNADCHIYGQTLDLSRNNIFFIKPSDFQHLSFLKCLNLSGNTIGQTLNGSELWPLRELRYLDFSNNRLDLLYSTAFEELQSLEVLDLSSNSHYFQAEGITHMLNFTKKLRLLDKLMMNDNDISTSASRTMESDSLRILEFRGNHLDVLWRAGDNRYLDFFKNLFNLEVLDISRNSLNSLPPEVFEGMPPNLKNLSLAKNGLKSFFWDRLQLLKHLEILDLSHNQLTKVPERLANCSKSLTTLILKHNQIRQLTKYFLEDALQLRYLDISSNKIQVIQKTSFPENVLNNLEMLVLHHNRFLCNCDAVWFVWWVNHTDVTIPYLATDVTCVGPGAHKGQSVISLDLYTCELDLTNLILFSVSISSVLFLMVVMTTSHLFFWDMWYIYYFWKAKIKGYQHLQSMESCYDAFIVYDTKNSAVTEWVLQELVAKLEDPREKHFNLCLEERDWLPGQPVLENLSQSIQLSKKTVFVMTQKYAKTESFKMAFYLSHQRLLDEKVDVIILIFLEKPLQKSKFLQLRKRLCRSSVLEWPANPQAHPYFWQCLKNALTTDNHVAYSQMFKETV
Procedure: as §1, §2

[1] = test system: Human peripheral blood mononuclear cells (PBMCs); assay: Human PBMC Assay, cytokine release (HTRF); conditions: 24 hours; for EC50: PBMC
Text: Human peripheral blood mononuclear cells (PBMCs) were isolated from fresh Leukopak using magnetic separation. Briefly, erythrocytes and granulocytes were magnetically labeled with Erythrocyte Depletion MicroBeads (Miltenyi Biotec) and Granulocyte Depletion MicroBeads (Miltenyi Biotec), respectively. The cell suspension was loaded onto a Multi-24 Column Block (Miltenyi Biotec) and placed in the magnetic field of a MultiMACS Cell24 Separator Plus (Miltenyi Biotec). The unlabelled PBMCs were collected in the run through. PBMCs were resuspended in CryoStor® CS10 ([…]) and frozen. On the day before the assay, PBMCs were thawed in warm assay buffer (RPMI+10% FBS) and resuspended in assay buffer+10 ng/ml hIL3 (R&D Systems). Cells were rested at 37° C.+5% CO2 overnight. The following day, cells were spun down and resuspended in fresh assay buffer. 300,000 cells were added to each well of plates containing test compound. For test compound preparation, each compound was initially diluted to 1 mM in DMSO and further diluted in assay buffer. A 4-fold 11-point titration starting from 15 μM was performed. Cells were incubated with test compound at 37° C.+5% CO2 for 24 hours before supernatant was harvested. Human interleukin 6 (hIL6), human tumor necrosis factor alpha (hTNFα), and human interferon alpha (hIFNα) were quantified in the supernatant using homogeneous time resolved fluorescence (Cisbio).
as §2

Mouse splenocytes = assay: Mouse Splenocyte Assay, cytokine release (HTRF); conditions: 24 hours, mIL6 in supernatant; for EC50: Splenocyte, read-out: Splenocyte IL6 EC50
Procedure: Mouse splenocytes were isolated from fresh mouse spleens. Briefly, spleens were harvested from female balb/c nude mice and transferred to a 70 μm cell strainer. The cell strainer was subsequently placed in a 6-well suspension culture plate containing 5 mL media (RPMI+10% FBS). The spleens were crushed against the cell strainer using the flat end of a 10 mL syringe plunger and the cell strainer was washed with 5 mL media. The cell strainer was discarded, and the cell suspension was washed in PBS. Red blood cells were removed using PharmaLyse (BD). The cell suspension was washed in media, resuspended in CryoStor® CS10 ([…]) and frozen. On assay day, mouse splenocytes were thawed in warm assay buffer (RPMI+10% FBS). Cells were spun down and resuspended in fresh assay buffer. 100,000 cells were added to each well of plates containing test compound. For test compound preparation, each compound was initially diluted to 1 mM in DMSO and further diluted in assay buffer. A 4-fold 11-point titration starting from 15 μM was performed. Cells were incubated with test compound at 37° C.+5% CO2 for 24 hours before supernatant was harvested. Murine IL6 (mIL6) and murine TNFα (mTNFα) were quantified in the supernatant using homogeneous time resolved fluorescence (Cisbio).
as §2

[2] = hIFNα in supernatant, EC50 values approximated and divided into groups, read-out: PBMC IFNa EC50
[3] = hIL6 in supernatant, read-out: PBMC IL6 EC50

Row | EC50 (hTLR7) [nM] | EC50 (mTLR7) [nM] | EC50 (Mouse splenocytes) [nM] | Splenocyte IL6 EC50 (nM) (Mouse splenocytes) | Structure (SMILES) | EC50 [1, 2] [nM] | EC50 [1, 3] [nM] | PBMC IL6 EC50 (nM) ([1]; hIL6 in supernatant)
1 |  |  | 222 |  | CCCCCNc1nc(N)nc2ccn(Cc3ccc(CN4CCN(CCNC(=O)CC(SCC(N)C(=O)O)C(=O)O)CC4)cc3OC)c12 (stereo not shown) [Benchmark, reference compound] | 1 to 10 | 207 | 
2 | 6.3 | 77.9 | 2940 |  | CCOc1nc(N)c2nc(O)n(Cc3ccc(CN4CCNCC4)cc3OC)c2n1 [Compound 100, 6-amino-2-ethoxy-9-(2-methoxy-4-(piperazin-1-ylmethyl)benzyl)-9H-purin-8-ol] | 1 to 10 | 240 | 
3 | 57 | 47.7 | 154 |  | CCOc1nc(N)c2nc(O)n(Cc3ccc(CNCC(C)(C)O)cc3OC)c2n1 [Compound 101, 6-amino-2-ethoxy-9-(4-(((2-hydroxy-2-methylpropyl)amino)methyl)-2-methoxybenzyl)-9H-purin-8-ol] | 0.1 to 1 | 127 | 
4 | 2 | 5 | 99.7 |  | CCOc1nc(N)c2nc(O)n(Cc3ccc(CN(CC)CC)cc3OC)c2n1 [Compound 102, 6-amino-9-(4-((diethylamino)methyl)-2-methoxybenzyl)-2-ethoxy-9H-purin-8-ol] | < 0.1 | 69.1 | 
5 | 138 | 27.4 | 1330 |  | CCOc1nc(N)c2nc(O)n(Cc3ccc(CNCCCCCO)cc3OC)c2n1 [Compound 103, 6-amino-2-ethoxy-9-(4-(((5-hydroxypentyl)amino)methyl)-2-methoxy-benzyl)-9H-purin-8-ol] | 0.1 to 1 | 9270 | 
6 | 1310 | 1040 | 1360 |  | CCOc1nc(N)c2nc(O)n(Cc3ccc(CNCCCN4CCN(CCCN)CC4)cc3OC)c2n1 [Compound 104, 6-amino-9-(4-(((3-(4-(3-aminopropyl)piperazin-1-yl)propyl)amino)methyl)-2-methoxybenzyl)-2-ethoxy-9H-purin-8-ol] | > 10 | 598 | 
7 | 7 | 2.4 | 26.2 |  | CCOc1nc(N)c2nc(O)n(Cc3ccc(CNCc4ccc(CN)cc4)cc3OC)c2n1 [Compound 105, 6-amino-9-(4-(((4-(aminomethyl)benzyl)amino)methyl)-2-methoxybenzyl)-2-ethoxy-9H-purin-8-ol] | < 0.1 | 394 | 
8 | 348 | 94.1 | 2060 |  | CCOc1nc(N)c2nc(O)n(Cc3ccc(CNCCCCN)cc3OC)c2n1 [Compound 106, 6-amino-9-(4-(((4-aminobutyl)amino)methyl)-2-methoxybenzyl)-2-ethoxy-9H-purin-8-ol] | 1 to 10 | 688 | 
9 | 13000 |  |  | inactive | CCOc1nc(N)c2nc(O)n(Cc3ccc(CN[C@@H](Cc4ccccc4)C(=O)O)cc3OC)c2n1 [Compound 117, (4-((6-amino-2-ethoxy-8-hydroxy-9H-purin-9-yl)methyl)-3-methoxybenzyl)-L-phenylalanine] | > 10 |  | inactive

Row | Structure (SMILES) | EC50 (hTLR7) [nM] | EC50 (mTLR7) [nM] | EC50 (Mouse splenocytes) [nM] | Splenocyte IL6 EC50 (nM) (Mouse splenocytes) | EC50 [1, 2] [nM] | EC50 [1, 3] [nM] | PBMC IL6 EC50 (nM) ([1]; hIL6 in supernatant)
10 | CCCCOc1nc(N)c2nc(O)n(Cc3ccc(CNC(CO)[C@@H](C)CC)cc3OC)c2n1 (stereo in doubt) [Compound 161, 6-amino-2-butoxy-9-(4-((((2R,3S)-1-hydroxy-3-methylpentan-2-yl)amino)-methyl)-2-methoxybenzyl)-9H-purin-8-ol] | < 0.1 | < 0.1 | 0.3 |  | < 0.1 | 16.7 | 
11 | CCCCOc1nc(N)c2nc(O)n(Cc3ccc(CCN4CCC(CCN)CC4)cc3OC)c2n1 [Compound 178, 6-amino-9-(4-(2-(4-(2-aminoethyl)piperidin-1-yl)ethyl)-2-methoxybenzyl)-2-butoxy-9H-purin-8-ol] | 144 |  | 245 |  | 1 to 10 | 284 | 
12 | CCCCOc1nc(N)c2nc(O)n(Cc3ccc(CCN4CCC(N)CC4)cc3OC)c2n1 [Compound 181, 6-amino-9-(4-(2-(4-aminopiperidin-1-yl)ethyl)-2-methoxybenzyl)-2-butoxy-9H-purin-8-ol] | 4.5 |  | 235 |  | > 10 |  | inactive
